Data on three compounds can be found in PubChem BioAssay AID2060621 (Molecular Pharmacology Branch, DTP, NCI, 2025).

“And” between values parts separate entries of the source, which are not always exact repeats. Equal entries are not always repeated.

The test system of this experiment is 324938-238-R-J1-PDC complex spheroids viability. The experiment in a line: Anticancer human tumor 324938-238-R-J1-PDC patient-derived bladder carcinoma cell line growth inhibition [CLK]. The settings on record: for viability, T/C: stronger effect = lower value. Summed up: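 Multi-cell-type spheroids combined patient-derived tumor cells with HUVEC endothelial cells and human mesenchymal stem cells. Paired agents were dosed in half-log steps down from about clinical Cmax, or from 10 microM where Cmax was unknown.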
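Further: viability read after seven days of drug exposure.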
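Wherever viability, T/C is given: 100% = DMSO vehicle control wells.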

As for `Cn1ncnc1[C@H]1c2n[nH]c(=O)c3cc(F)cc(c23)N[C@@H]1c1ccc(F)cc1`, the viability, T/C (compound 0.000316 µM) is 84.5% and 92.7%; the viability, T/C (compound 0.001 µM) was 78.8% and 76.2%; the viability, T/C (compound 0.00316 µM) was 60% and 68.3%; the viability, T/C (compound 0.01 µM) is 50% and 55.5%; the viability, T/C (compound 0.0316 µM) was 37.4% and 33.3%; the viability, T/C (compound 0.1 µM) is 28.4% and 24.7%. The IC50 (curve of compound) was 9.12 nM and 11.8 nM.

For `CC1COCCN1c1cc(C2(S(C)(=N)=O)CC2)nc(-c2ccnc3[nH]ccc23)n1` (stereo unspecified) + CNC(=O)c1ccc(Nc2nc(OC3CCCC3)c3c(-c4ccc5nc(C)oc5c4)c[nH]c3n2)c(OC)c1, the IC50 is 1390 nM (curve of first compound, second compound 0.0316 µM); less than 31.6 nM (curve of first compound, second compound 0.1 µM); less than 31.6 nM (curve of first compound, second compound 0.316 µM); less than 31.6 nM (curve of first compound, second compound 1 µM); less than 31.6 nM (curve of first compound, second compound 3.16 µM); less than 31.6 nM (curve of first compound, second compound 10 µM). Besides, the viability, T/C is 90.4% (second compound 0.0316 µM, first compound 0.0316 µM); 89.2% (second compound 0.0316 µM, first compound 0.1 µM); 71% (second compound 0.0316 µM, first compound 0.316 µM); 60.7% (second compound 0.0316 µM, first compound 1 µM); 31.1% (second compound 0.0316 µM, first compound 3.16 µM); 15.5% (second compound 0.0316 µM, first compound 10 µM). Moreover, the viability, T/C was 30.8% (second compound 0.1 µM, first compound 0.0316 µM); 29.2% (second compound 0.1 µM, first compound 0.1 µM); 26.2% (second compound 0.1 µM, first compound 0.316 µM); 27.4% (second compound 0.1 µM, first compound 1 µM); 24.1% (second compound 0.1 µM, first compound 3.16 µM); 17.1% (second compound 0.1 µM, first compound 10 µM). The viability, T/C is, setting by setting: (second compound 0.316 µM, first compound 0.0316 µM) 18.6%; (second compound 0.316 µM, first compound 0.1 µM) 19.4%; (second compound 0.316 µM, first compound 0.316 µM) 17.2%; (second compound 0.316 µM, first compound 1 µM) 17.4%; (second compound 0.316 µM, first compound 3.16 µM) 12.9%; (second compound 0.316 µM, first compound 10 µM) 10.9%. Besides, the viability, T/C reads like this: (second compound 1 µM, first compound 0.0316 µM) 14.7%; (second compound 1 µM, first compound 0.1 µM) 15.8%; (second compound 1 µM, first compound 0.316 µM) 16%; (second compound 1 µM, first compound 1 µM) 12.6%; (second compound 1 µM, first compound 3.16 µM) 13.9%; (second compound 1 µM, first compound 10 µM) 7.97%. For the same compound, the viability, T/C is 16.2% (second compound 3.16 µM, first compound 0.0316 µM); 15.1% (second compound 3.16 µM, first compound 0.1 µM); 16.9% (second compound 3.16 µM, first compound 0.316 µM); 15.6% (second compound 3.16 µM, first compound 1 µM); 13.1% (second compound 3.16 µM, first compound 3.16 µM); 7.09% (second compound 3.16 µM, first compound 10 µM). Moreover, the viability, T/C is, setting by setting: (second compound 10 µM, first compound 0.0316 µM) 16.6%; (second compound 10 µM, first compound 0.1 µM) 15.1%; (second compound 10 µM, first compound 0.316 µM) 16.7%; (second compound 10 µM, first compound 1 µM) 15.2%; (second compound 10 µM, first compound 3.16 µM) 14.5%; (second compound 10 µM, first compound 10 µM) 8.22%.

Consider `CC(CO)NC(=O)c1cc(-c2ccc(Cl)cc2)nn(-c2cnn(C)c2)c1=O` (stereo unspecified), for which the viability, T/C was 84.8% and 86.6% (compound 0.0316 µM); 92.3% and 81.3% (compound 0.1 µM); 71.5% and 73.9% (compound 0.316 µM); 78.2% and 76.1% (compound 1 µM); 60.9% and 59.9% (compound 3.16 µM); 47.1% and 42.9% (compound 10 µM). Further, for the setting “curve of compound”, the IC50 is 8050 nM and 6340 nM.
